“Also recorded” adds a separate entry of the source.
Legend:
human M3 mAChR = human M3 mAChR (Homo sapiens, UniProt P20309); conditions: [3H]NMS binding assay; ref [36],[43]; cited from earlier work
M3 mAChR = conditions: ref [36],[43]; cited from earlier work
mAChRs = assay: [3H]DA release assay, superfused rat striatal slices
human M5 mAChR = target: T1, human M5 mAChR (Homo sapiens, UniProt P08912); assay: [3H]NMS binding, CHO cell membranes expressing human M5 mAChR
T1 sequence (P08912 1-532): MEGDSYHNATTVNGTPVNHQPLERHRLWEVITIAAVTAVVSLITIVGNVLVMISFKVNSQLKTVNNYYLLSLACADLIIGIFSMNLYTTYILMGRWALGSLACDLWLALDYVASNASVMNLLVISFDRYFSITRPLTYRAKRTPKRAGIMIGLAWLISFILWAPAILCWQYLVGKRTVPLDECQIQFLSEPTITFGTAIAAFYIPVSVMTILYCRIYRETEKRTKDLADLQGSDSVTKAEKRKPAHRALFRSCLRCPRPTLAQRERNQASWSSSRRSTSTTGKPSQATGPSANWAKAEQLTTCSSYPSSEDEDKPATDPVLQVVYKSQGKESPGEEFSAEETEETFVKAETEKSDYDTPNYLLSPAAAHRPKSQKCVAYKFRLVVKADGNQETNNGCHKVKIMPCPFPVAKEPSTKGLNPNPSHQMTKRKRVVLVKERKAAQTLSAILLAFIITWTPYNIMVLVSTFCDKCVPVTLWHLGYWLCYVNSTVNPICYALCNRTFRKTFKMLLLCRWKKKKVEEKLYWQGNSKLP

Chain of human M3 mAChR (P20309 whole entry): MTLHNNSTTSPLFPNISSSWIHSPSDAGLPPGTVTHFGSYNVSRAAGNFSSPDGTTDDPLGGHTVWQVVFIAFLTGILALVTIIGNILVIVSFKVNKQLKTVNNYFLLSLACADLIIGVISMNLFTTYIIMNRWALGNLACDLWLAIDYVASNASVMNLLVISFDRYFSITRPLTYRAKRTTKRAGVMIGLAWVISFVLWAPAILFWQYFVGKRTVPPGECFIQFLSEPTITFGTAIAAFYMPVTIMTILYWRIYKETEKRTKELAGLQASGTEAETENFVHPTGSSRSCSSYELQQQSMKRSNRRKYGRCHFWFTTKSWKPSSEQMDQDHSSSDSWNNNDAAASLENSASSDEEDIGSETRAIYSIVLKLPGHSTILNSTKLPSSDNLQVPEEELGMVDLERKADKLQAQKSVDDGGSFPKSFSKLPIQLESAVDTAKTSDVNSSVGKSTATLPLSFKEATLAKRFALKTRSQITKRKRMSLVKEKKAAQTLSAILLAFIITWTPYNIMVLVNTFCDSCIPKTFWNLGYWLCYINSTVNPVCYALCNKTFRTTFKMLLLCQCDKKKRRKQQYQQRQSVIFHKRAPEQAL

| Compound | selectivity for M3 over M2 (human M3 mAChR) [fold] | effect on carbachol-induced contraction of the isolated rat tracheal muscle (M3 mAChR) | also measured |
| --- | --- | --- | --- |
| Nc1cccc(CN2CCC(NC(=O)[C@](O)(c3ccccc3)[C@@H]3CCC(F)(F)C3)CC2)n1 [compound A, (2R)-N-[1-(6-aminopyridin-2-ylmethyl)piperidin-4-yl]-2-[(1R)-3,3-difluorocyclopentyl]-2-hydroxy-2-phenylacetamide] | 193 | inhibition |  |
| CN1[C@@H]2C[C@H](OC(=O)[C@H](CO)c3ccccc3)C[C@H]1[C@@H]1O[C@@H]12 [scopolamine] |  |  | effect on 3c-evoked [3H]DA overflow (mAChRs; scopolamine 10 μM, 3c 10 μM): inhibited |
| O=C(NCC1CCNCC1)[C@H]1CCCN1C(=O)[C@@H]1C[C@@H](O)CN1C(=O)CC(c1ccc(F)cc1)(c1ccc(F)cc1)c1ccc(F)cc1 [compound 14a, (2R)-1-((2S,4R)-4-hydroxy-1-[3,3,3-tris(4-fluoro-phenyl)propanoyl]-pyrrolidine-2-yl)carbonyl-N-(4-piperidinyl-methyl)pyrrolidine-2-carboxamide] | 1600 | inhibition |  |
| O=C1CCCN1CC#CCN1CCCC1 [oxotremorine] |  |  | effect on [3H]DA overflow compared to control (mAChRs; oxotremorine 100 μM): increased [^3H]DA overflow |
| O=C(OC1CN2CCC1CC2)N(CCc1ccc(F)cc1)c1ccccc1 (racemic) [Compound 3c, (±)-quinuclidin-3-yl-(4-fluorophenethyl)(phenyl)carbamate] |  |  | fold higher affinity for M5 mAChRs compared to compound 1 (human M5 mAChR): 1200 fold; effect on oxotremorine-evoked [3H]DA overflow (mAChRs; oxotremorine 100 μM, 3c 0.1, 1, 10 μM, significant at 10 μM): augmented oxotremorine-evoked [^3H]DA overflow; also recorded: augmented release evoked by oxotremorine; also recorded: augmented oxotremorine-evoked DA release |
